Holding throughout (type): functional
The subject of experiment [1] is A-431. Description: Antitumor activity against human A-431 cells xenografted in mouse assessed as average tumor volume at 1.25 to 10 mg/kg/day, po started on day 14 post-implant and measured on day 23 (reference value: >1200 mg). The note with it: dose 1.25-10 mg/kg/day, time 23 day. (In general: In xenograft studies the graft and the host belong to different species.)

The test system of experiment [2] is A-431. Description: Antitumor activity against human A-431 cells xenografted in mouse assessed as reduction in average tumor volume at 1.25 to 40 mg/kg/day, po started on day 14 post-implant, stopped on day 66, and then restarted on day 76 for 2 additional weeks. The note with it: dose 1.25-40 mg/kg/day, read-out: MED.
In experiment [3] the test system is A-431. The experiment is described as follows: Antitumor activity against human A-431 cells xenografted in mouse assessed as average tumor volume at 20 to 40 mg/kg/day, po started on day 14 post-implant and measured on day 23 (reference value: >1200 mg). The note with it: dose 20-40 mg/kg/day, time 23 day.

The record followed here is ChEMBL document CHEMBL5661965, “CI-1033, a pan-erbB tyrosine kinase inhibitor” (Semin Oncol, 2001).

Some results are limits rather than exact numbers.

Regarding `C=CC(=O)Nc1cc2c(Nc3ccc(F)c(Cl)c3)ncnc2cc1OCCCN1CCOCC1.Cl.Cl` [CANERTINIB DIHYDROCHLORIDE], the Activity is listed as 175 mg in the experiment on A-431 [1] and “<=100 mg” in the experiment on A-431 [3]. In addition, in the experiment with A-431 [2], the minimal effective dose is 1.25 mg/kg/day.
